According to patent US5310749A, “Antiprotozoal composition containing a 2-nitroimidazole derivative and method thereof” (Pola Chemical Industries Inc., priority 1991, dated 1994):

Assays:
[1] = system: Trypanosoma cruzi; assay: Anti-protozoan action 1 (in vitro), T. cruzi-infected A204 cells; type: cell-based; design: key: +++: same number of protozoa alive as control; ++: slightly less number alive than control; +: less number alive than control; ±: only a few alive; -: all dead; conditions: A204 cells infected with T. cruzi, 37° C., 24 hours
Description: A204 cells (derived from a […]), which had been infected in advance with Trypanosoma cruzi and maintained by subculture at 37° C., were cultured in a 24-well plate for tissue culture. The protozoa in the number of about 10^5 were confirmed to be present. After the cells were treated with 50 μmol, 100 μmol and 500 μmol of compounds 1) to 3), they were cultured at 37° C. for 24 hours. Life and death of the protozoa was observed under microscope and scored. The medium used was Dulbecco Modified Eagle Medium manufactured by Dainihon-Seiyaku K. K. added with 10% bovine serum. Control was free of any of compounds 1 to 3).

[2] = Acute toxicity; conditions: mouse, in vivo, ip
Description: ICR mice were intraperitoneally administered with compound 1) for the acute toxicity test. Observation was continued for 14 days after the administration.

[3] = system: Trypanosoma cruzi; assay: Anti-protozoan action 2 (in vitro), T. cruzi culture in GIT medium; type: cell-based; design: key: +++: same number of protozoa alive as control; ++: slightly less number alive than control; +: less number alive than control; ±: only a few alive; -: all dead; conditions: GIT medium (serum-free), 27° C., 120 hours
Description: Trypanosoma cruzi was cultured at 27° C. in a GIT medium (serum-free medium) manufactured by Nippon Seiyaku K. K. which was modified to contain […] of hemine. 50 μmol, 100 μmol, 250 μmol and 500 μmol of each of compounds 1) to 3) were added thereto. 120 hours later, life or death of the protozoa was observed under microscope and scored according to the criteria in Example 1. Control was free of any of compounds 1) to 3).

[4] = system: Trypanosoma cruzi (Tulahuen strain); assay: Anti-protozoan action (in vivo), survival of infected C3H/Hecrj mice (Example 4); design: species or system Trypanosoma cruzi (Tulahuen strain) in male C3H/Hecrj mice; conditions: 200 mg/kg on days 4-8; 200,000 T. cruzi i.p.; 4 mice; control 12 days
Description: Trypanosoma cruzi (Tulahuen strain) in the number of 200,000 was intraperitoneally administered to a group of 5 week old male C3H/Hecrj mice. At each of fourth, fifth, sixth, seventh and eighth day of the administration, 200 mg/kg of compound 1) was given to the mice. Control group was given saline solution instead of compound 1). The anti-protozoaneffect of compound 1) was determined based on the days of survival of the mice.

[5] = system: Trypanosoma cruzi (Tulahuen strain); assay: Anti-protozoan action (in vivo), survival of infected ICR mice (Example 3); design: species or system Trypanosoma cruzi (Tulahuen strain) in male ICR mice; conditions: 200 mg/kg on days 5-9; 400,000 T. cruzi i.p.; all of 3 mice; control 14-15 days
Description: Trypanosoma cruzi (Tulahuen strain) in the number of 400,000 was intraperitoneally administered to a group of 4 week old male ICR mice. At each of fifth, sixth, seventh, eighth and ninth day of the administration,200 mg/kg of compound 1) was given to the mice. Control group was given saline solution instead of compound 1). The anti-protozoan effect of compound 1) was determined based on the days of survival of the mice.

[6] = system: Trypanosoma cruzi (Tulahuen Strain); assay: Deaths and presence of protozoa in infected ICR mice, compound 1) with or without anionic copolymer (Example 5); type: in vivo, Trypanosoma cruzi (Tulahuen Strain) in ICR male mice
Description: Five groups (Groups 1 to 5) of four week old ICR male mice, each group consisting of 3 mice, were provided. Group 2 and Group 5 mice were given 4.4 mg of acrylic acid-diisobutylvinyl ether copolymer (monomer ratio=1:1, average molecular weight=1.29×10^5) as dissolved in a 0.2 ml saline. On the second day, all animals were intraperitoneally given Trypanosoma cruzi (Tulahuen Strain) in the number of 40,000 for each. On the fifth, sixth, seventh, eighth and ninth day of the administration of the Tripanosoma, Group 1 and Group 2 mice were given saline, and Group 3 and Group 5 mice were given compound 1) (200 mg/kg) as dissolved in saline. Group 4 mice were intraperitoneally given 4.4 mg of acrylic acid-diisobutyl vinyl ether copolymer (monomer ratio=1:1, average molecular weight=1.29×10^5) and compound 1) (200 mg/kg) on the fifth day of the administration of the Trypanosoma, and on the sixth, seventh, eighth and ninth day of the administration, compound 1) (200 mg/kg) was intraperitoneally administered. Observation was continued until 60 th day of administration of Trypanosoma. The mice which were alive on the 60th day were killed and dissected to check the presence or absence of the protozoa in blood, the heart and in the liver under microscope.

[7] = ICR mice, intraperitoneal, observation 14 days

In the case of `O=[N+]([O-])c1nccn1COCC=CCO` [Compound 1)], the “Life and death of the protozoa, score” value ([1]; 50 μmol) is reported as “±”, the “Life and death of the protozoa, score” value ([1]; 100 μmol) is reported as “-” and the “Life and death of the protozoa, score” value ([1]; 500 μmol) is reported as “-”. For the same molecule, the LD50 at 336 h [2] was 830 mg/kg, the “Life or death of the protozoa, score” value ([3]; 50 μmol) was “++” and the “Life or death of the protozoa, score” value ([3]; 100 μmol) was “++”. For the same molecule, the “Life or death of the protozoa, score” value ([3]; 250 μmol) was “+”, the “Life or death of the protozoa, score” value ([3]; 500 μmol) was “-” and the “days of survival of the mice” value [4] was “more than 20 days”. For the same molecule, the “days of survival of the mice” value [5] was “more than 50 days”, the “Number of Dead Samples” value ([6]; Group 3: compound 1) 200 mg/kg on days 5-9) was 0 and the “death in the groups given compound 1)” value ([6]; Group Nos. 3, 4 and 5) was “no death”.
For `O=[N+]([O-])c1nccn1COC(CO)CO` [Compound 2)], the “Life and death of the protozoa, score” value ([1]; 50 μmol) was “++”, the “Life and death of the protozoa, score” value ([1]; 100 μmol) was “++” and the “Life and death of the protozoa, score” value ([1]; 500 μmol) was “-”. For the same molecule, the LD50 at 336 h [2, 7] was 4300 mg/kg, the “Life or death of the protozoa, score” value ([3]; 50 μmol) was “+++” and the “Life or death of the protozoa, score” value ([3]; 100 μmol) was “+++”. For the same molecule, the “Life or death of the protozoa, score” value ([3]; 250 μmol) was “+++” and the “Life or death of the protozoa, score” value ([3]; 500 μmol) was “+++”.
For `O=[N+]([O-])c1nccn1[C@H]1O[C@H](CO)[C@@H](O)[C@H]1O` [Compound 3)], the “Life and death of the protozoa, score” value ([1]; 50 μmol) was “++”, the “Life and death of the protozoa, score” value ([1]; 100 μmol) was “++” and the “Life and death of the protozoa, score” value ([1]; 500 μmol) was “+”. For the same molecule, the LD50 at 336 h [2, 7] was greater than 5000 mg/kg, the “Life or death of the protozoa, score” value ([3]; 50 μmol) was “+++” and the “Life or death of the protozoa, score” value ([3]; 100 μmol) was “+++”. The “Life or death of the protozoa, score” value ([3]; 250 μmol) was “+++” and the “Life or death of the protozoa, score” value ([3]; 500 μmol) was “+”.
